Drawing on PMC6148764, “Consensus design for improved thermostability of lipoxygenase from Anabaena sp. PCC 7120” (BMC Biotechnology, 2018), this text covers Km for one compound.

In general, Km refers to the concentration of substrate that gives half-maximal velocity.

Test in all cases: hydroperoxide formation at […] nm, spectrophotometer, initial rate
Common to all, as to format: biochemical
Common to all, as to conditions: Tris-HCl pH 9.0, 30 °C

Assay [1] concerns the target T1, Ana-rLOX (Nostoc sp. PCC 7120 = FACHB-418, UniProt Q8YK97, G578A).
T1 construct: gene all8020

In assay [2] the target is T2, Ana-rLOX (Nostoc sp. PCC 7120 = FACHB-418, UniProt Q8YK97, S755T).
T2 construct: gene all8020

Assay [3] concerns the target T3, Ana-rLOX (Nostoc sp. PCC 7120 = FACHB-418, UniProt Q8YK97, N448D).
T3 construct: gene all8020

In assay [4] the target is T4, Ana-rLOX (Nostoc sp. PCC 7120 = FACHB-418, UniProt Q8YK97, N448D/G578Q).
T4 construct: gene all8020

For assay [5], the target named is T5, Ana-rLOX (Nostoc sp. PCC 7120 = FACHB-418, UniProt Q8YK97).
T5 construct: gene all8020
T5 sequence (Q8YK97 319-773 limits assumed): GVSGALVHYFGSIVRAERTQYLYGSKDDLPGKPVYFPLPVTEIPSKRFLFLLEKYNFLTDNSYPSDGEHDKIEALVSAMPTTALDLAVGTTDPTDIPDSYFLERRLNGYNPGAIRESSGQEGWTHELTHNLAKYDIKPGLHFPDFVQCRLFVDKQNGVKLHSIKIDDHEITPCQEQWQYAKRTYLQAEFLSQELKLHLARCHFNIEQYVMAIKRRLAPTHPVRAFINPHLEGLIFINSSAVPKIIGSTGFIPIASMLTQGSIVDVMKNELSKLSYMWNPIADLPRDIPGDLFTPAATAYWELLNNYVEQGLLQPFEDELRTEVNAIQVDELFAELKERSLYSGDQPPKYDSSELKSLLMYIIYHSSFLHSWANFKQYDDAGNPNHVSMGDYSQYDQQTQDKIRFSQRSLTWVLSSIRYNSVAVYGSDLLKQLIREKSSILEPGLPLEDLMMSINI

Assay [6] has as its target T6, Ana-rLOX (Nostoc sp. PCC 7120 = FACHB-418, UniProt Q8YK97, N448D/S755Y).
T6 construct: gene all8020

T3 sequence (Q8YK97 319-773 N448D): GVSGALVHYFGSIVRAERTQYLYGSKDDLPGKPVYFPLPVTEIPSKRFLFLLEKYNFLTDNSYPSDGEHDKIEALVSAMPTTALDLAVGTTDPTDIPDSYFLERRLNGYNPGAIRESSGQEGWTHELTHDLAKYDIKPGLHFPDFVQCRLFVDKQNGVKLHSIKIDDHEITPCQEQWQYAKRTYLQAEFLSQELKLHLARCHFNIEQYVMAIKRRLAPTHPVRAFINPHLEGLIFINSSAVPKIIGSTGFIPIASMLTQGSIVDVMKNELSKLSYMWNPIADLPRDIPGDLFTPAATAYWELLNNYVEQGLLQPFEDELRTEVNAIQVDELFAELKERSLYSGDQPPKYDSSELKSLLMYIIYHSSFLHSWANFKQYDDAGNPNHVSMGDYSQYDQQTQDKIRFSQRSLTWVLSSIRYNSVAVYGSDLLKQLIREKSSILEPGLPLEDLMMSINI
T4 sequence (Q8YK97 319-773 N448D/G578Q): as the sequence (Q8YK97 319-773 N448D) above, with G260Q counted along it
T2 sequence (Q8YK97 319-773 S755T): as the sequence (Q8YK97 319-773 N448D) above, with D130N, S437T counted along it
T6 sequence (Q8YK97 319-773 N448D/S755Y): as the sequence (Q8YK97 319-773 N448D) above, with S437Y counted along it
T1 sequence (Q8YK97 319-773 G578A): as the sequence (Q8YK97 319-773 N448D) above, with D130N, G260A counted along it

Consider `CCCCC/C=C\C/C=C\CCCCCCCC(=O)O` [linoleic acid], for which the Km on Ana-rLOX [1] turned out to be 34 ± 2.3 µM; at Ana-rLOX [2], 56 ± 4.7 µM; at Ana-rLOX [3] it was 30 ± 2.6 µM; on Ana-rLOX [4] it was 13 ± 1 µM; on Ana-rLOX [5], 56 ± 4 µM; at Ana-rLOX [6] it was 15 ± 1.1 µM.
